Reference: ChEMBL document CHEMBL1201862, “PubChem BioAssay data set” (2004)
Calls of active or inactive are those of the source.

Legend:
Cytochrome P450 2C19 = Cytochrome P450 2C19 (Homo sapiens, UniProt P33261); assay: Cytochrome panel assay with activity outcomes. Panel member name: p450-cyp2c19 Compounds with AC50 equal or less than 10 uM are considered active; assay type: functional
Cytochrome P450 2D6 = Cytochrome P450 2D6 (Homo sapiens, UniProt P10635);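 further: CYP2D6 member of a cytochrome P450 panel assay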
Cytochrome P450 1A2 = target: T1, Cytochrome P450 1A2 (Homo sapiens, UniProt P05177);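 further: PubChem cytochrome P450 panel assay, CYP1A2 panel member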
T1 sequence (P05177 whole entry): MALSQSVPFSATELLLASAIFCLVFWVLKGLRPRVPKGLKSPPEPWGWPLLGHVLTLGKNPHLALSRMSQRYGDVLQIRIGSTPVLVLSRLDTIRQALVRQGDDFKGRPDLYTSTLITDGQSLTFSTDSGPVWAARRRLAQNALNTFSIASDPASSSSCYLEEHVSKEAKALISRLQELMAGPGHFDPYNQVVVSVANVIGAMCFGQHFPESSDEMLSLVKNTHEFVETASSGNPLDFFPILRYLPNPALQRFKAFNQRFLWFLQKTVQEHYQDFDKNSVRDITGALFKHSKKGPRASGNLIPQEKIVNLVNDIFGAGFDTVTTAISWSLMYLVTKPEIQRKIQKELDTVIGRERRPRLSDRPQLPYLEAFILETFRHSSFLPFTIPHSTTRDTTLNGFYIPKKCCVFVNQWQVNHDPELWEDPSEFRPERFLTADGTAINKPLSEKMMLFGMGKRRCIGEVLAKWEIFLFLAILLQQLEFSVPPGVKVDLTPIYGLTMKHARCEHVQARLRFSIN

Cytochrome P450 3A4 = Cytochrome P450 3A4 (Homo sapiens, UniProt P08684);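 further: CYP3A4 tested as one member of a cytochrome P450 panel screen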
Cytochrome P450 2C9 = Cytochrome P450 2C9 (Homo sapiens, UniProt P11712)
Tumor necrosis factor = Tumor necrosis factor (Homo sapiens, UniProt P01375); assay: TNFa-triggered NF-kB activation inhibitors, SAR follow-up, cell-based, revised (AID 2337); assay type: functional
[1] = target: Nucleotide-binding oligomerization domain-containing protein 1 (Homo sapiens, UniProt Q9Y239); assay: NOD1 signaling inhibitors, SAR follow-up, revised (AID 2333); assay type: functional
[2] = target: Nucleotide-binding oligomerization domain-containing protein 2 (Homo sapiens, UniProt Q9HC29); assay: PubChem AID 2334; assay type: functional
HEK293 = assay: cells; conditions: Homo sapiens;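 further: cells exposed to compound for 14 hours overnight before viability readout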
[3] = NIH-3T3 fibroblast cytotoxicity, dose response, cytotoxicity control, cell-based, fluorescence, Alamar Blue, secondary assay (AID 2327); assay type: functional;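 further: NIH-3T3 mouse fibroblasts cultured with fluconazole at 8 µg/mL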
[4] = C. albicans growth with fluconazole, confirmation, fluorescence, retest (AID 2467); assay type: functional, cell-based
[5] = target: T2, Serine/threonine-protein phosphatase (Candida dubliniensis (strain CD36 / CBS 7987 / NCPF 3949 / NRRLY-17841) (Yeast), UniProt B9W6M3); assay: calcineurin pathway inhibitors in yeast reporter, dose response, S. cerevisiae, CDRE-lacZ, luminescence, secondary (AID 2388); assay type: functional, cell-based;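 further: yeast reporter cells carrying a calcineurin-responsive lacZ construct stimulated with calcium chloride; luminescent beta-galactosidase reporter signal in whole cells rather than isolated phosphatase activity; potency for inhibition where a drop in reporter signal means calcineurin blockade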
T2 sequence (B9W6M3 whole entry): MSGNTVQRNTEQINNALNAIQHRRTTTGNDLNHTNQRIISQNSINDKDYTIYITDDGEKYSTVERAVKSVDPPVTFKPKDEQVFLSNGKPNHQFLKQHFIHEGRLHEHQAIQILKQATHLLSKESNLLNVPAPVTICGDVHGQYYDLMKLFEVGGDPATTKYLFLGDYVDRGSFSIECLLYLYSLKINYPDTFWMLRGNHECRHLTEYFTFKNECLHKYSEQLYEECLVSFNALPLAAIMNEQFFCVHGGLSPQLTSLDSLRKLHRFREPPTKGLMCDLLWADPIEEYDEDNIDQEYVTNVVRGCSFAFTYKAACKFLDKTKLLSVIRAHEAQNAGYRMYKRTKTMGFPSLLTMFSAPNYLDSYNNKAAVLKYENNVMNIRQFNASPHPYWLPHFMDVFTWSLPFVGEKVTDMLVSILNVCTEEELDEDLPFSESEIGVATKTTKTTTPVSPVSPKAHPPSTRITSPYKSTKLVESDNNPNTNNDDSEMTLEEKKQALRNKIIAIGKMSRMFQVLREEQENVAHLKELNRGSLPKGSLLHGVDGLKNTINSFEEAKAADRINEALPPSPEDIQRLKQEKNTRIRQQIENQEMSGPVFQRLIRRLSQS

[6] = THP-1 cell cytotoxicity, dose response, cytotoxicity control for non-replicating M. tuberculosis project (AID 489025); assay type: functional
[7] = HepG2 cell cytotoxicity, dose response, cytotoxicity control for non-replicating M. tuberculosis project (AID 489018); assay type: functional; conditions: Mycobacterium tuberculosis
[8] = Vero E6 cell cytotoxicity, dose response, cytotoxicity control for non-replicating M. tuberculosis project, secondary assay (AID 492998); assay type: functional, VeroE6; conditions: Vero C1008
[9] = target: T3, Short transient receptor potential channel 4 (Mus musculus, UniProt Q9QUQ5); assay: mouse TRPC4 channel activators, dose response, cell-based, HEK293 TRPC4/mu-opioid, Fluo-4 calcium (AID 434937); assay type: functional
T3 sequence (Q9QUQ5 whole entry): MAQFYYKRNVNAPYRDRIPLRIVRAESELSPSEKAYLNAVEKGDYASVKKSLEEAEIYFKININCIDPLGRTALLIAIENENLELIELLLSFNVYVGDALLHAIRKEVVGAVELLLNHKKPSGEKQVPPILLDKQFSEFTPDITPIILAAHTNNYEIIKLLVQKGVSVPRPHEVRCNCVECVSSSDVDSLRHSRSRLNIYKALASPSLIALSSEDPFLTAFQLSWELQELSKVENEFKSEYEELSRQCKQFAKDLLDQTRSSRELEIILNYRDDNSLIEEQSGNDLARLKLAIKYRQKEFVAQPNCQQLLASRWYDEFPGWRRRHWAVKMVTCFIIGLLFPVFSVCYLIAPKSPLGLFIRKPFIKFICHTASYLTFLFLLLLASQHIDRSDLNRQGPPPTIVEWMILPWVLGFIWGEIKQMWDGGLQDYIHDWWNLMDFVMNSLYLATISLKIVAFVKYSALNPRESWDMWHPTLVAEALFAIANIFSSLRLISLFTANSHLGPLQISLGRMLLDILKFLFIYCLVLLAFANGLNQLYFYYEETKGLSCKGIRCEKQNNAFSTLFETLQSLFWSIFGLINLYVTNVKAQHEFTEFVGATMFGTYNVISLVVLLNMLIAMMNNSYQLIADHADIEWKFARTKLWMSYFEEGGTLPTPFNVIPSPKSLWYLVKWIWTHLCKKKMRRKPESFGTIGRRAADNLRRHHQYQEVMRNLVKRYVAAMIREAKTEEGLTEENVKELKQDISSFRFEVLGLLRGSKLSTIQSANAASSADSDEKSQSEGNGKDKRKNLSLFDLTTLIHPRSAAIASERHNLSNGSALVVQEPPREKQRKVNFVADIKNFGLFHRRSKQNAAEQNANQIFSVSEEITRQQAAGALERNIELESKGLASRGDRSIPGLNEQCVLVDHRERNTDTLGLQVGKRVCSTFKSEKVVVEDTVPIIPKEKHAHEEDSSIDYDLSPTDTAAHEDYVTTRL

cells = assay type: functional
[10] = target: T2, Serine/threonine-protein phosphatase; assay: Fluorescence Cell-Based Secondary Assay to Identify Inhibitors of Calcineurin. [Related pubchem assays (depositor defined):AID1979, AID2007]; assay type: functional
[11] = target: ATP-dependent molecular chaperone HSP82 (Candida albicans (strain WO-1) (Yeast), UniProt C4YTQ8); assay: loss of DOC-induced GRE-beta-galactosidase reporter signal, dose response, Hsp90 inhibitor project, S. cerevisiae, luminescence (AID 2400); assay type: functional, cell-based;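 further: beta-galactosidase luminescence from glucocorticoid response element reporter as proxy for Hsp90 function; inhibitor potency where signal loss means Hsp90 inhibition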
[12] = target: Sphingosine 1-phosphate receptor 1 (Homo sapiens, UniProt P21453); assay: Fluorescence-based counterscreen assay for S1P4 agonists: Cell-based dose response high throughput screening assay to identify agonists of the Sphingosine 1-Phosphate Receptor 1 (S1P1). [Related pubchem assays (depositor defined):AID1509, AID1523, AID1801, AID463107, AID463118, AID463119, AID463122, AID463123, AID463129, AID463225, AID504400, AID504460]; assay type: functional
[13] = target: T4, Sphingosine 1-phosphate receptor 4 (Homo sapiens, UniProt O95977); assay: Fluorescence dose response cell-based high throughput screening assay for agonists of the Sphingosine 1-Phosphate Receptor 4 (S1P4). [Related pubchem assays: 1509 (Primary screen.), 1523 (Confirmation screen in triplicates.)]; assay type: functional
T4 sequence (O95977 whole entry): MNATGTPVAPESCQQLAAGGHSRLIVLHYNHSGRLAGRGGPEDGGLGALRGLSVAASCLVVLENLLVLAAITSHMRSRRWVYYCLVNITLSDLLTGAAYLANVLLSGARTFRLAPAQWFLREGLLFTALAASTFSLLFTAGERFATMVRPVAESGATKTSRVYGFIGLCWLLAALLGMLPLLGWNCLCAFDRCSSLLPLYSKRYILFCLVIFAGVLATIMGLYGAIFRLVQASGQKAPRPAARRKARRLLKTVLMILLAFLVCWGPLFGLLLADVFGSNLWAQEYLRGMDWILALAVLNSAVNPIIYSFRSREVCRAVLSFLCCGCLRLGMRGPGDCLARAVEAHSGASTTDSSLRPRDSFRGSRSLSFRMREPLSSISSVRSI

[14] = target: Voltage-dependent T-type calcium channel subunit alpha-1H (Homo sapiens, UniProt O95180); assay type: functional;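 further: channel activity triggered by adding a high calcium stimulation buffer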
[15] = target: Eukaryotic translation initiation factor 4E (Mus musculus, UniProt P63073); assay: eIF4E–eIF4G protein interaction inhibitors, dose response, biochemical, TR-FRET (AID 855); assay type: functional;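 further: potency for disrupting eIF4E binding to eIF4GI seen as loss of FRET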
Salmon testes DNA = assay: DNA intercalators displacing acridine orange, dose response, artefact control for KSHV LANA DNA-binding inhibitor project, biochemical, fluorescence polarization, cherry-picked samples, set 2 (AID 504727); parameters: species or system Salmonidae
ORF 73 = ORF 73 (Human herpesvirus 8, UniProt O40947); assay: inhibitors of C-LANA binding to LBS DNA, dose response, biochemical, fluorescence polarization, cherry-picked samples (AID 504725); parameters: species or system Human gammaherpesvirus 8;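 further: fluorescence polarization of a labeled DNA duplex reporting LANA DNA binding; potency is for inhibitors that block LANA binding to the DNA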
[16] = target: UDP-galactopyranose mutase (Mycobacterium tuberculosis, UniProt P9WIQ1); assay: Inhibitors of Mycobacterium tuberculosis UDP-galactopyranose mutase (UGM) enzyme Measured in Biochemical System Using Plate Reader - 2105-02_Inhibitor_Dose_CherryPick_Activity. [Related pubchem assays (depositor defined):AID504439]
[17] = target: T5, Delta-type opioid receptor (Homo sapiens, UniProt P41143); assay: HTS Image-Based Screen for Antagonists of the DOR Receptor. [Related pubchem assays (depositor defined):AID1777, AID1785, AID1786, AID2133]; assay type: functional
Mu-type opioid receptor = Mu-type opioid receptor (Homo sapiens, UniProt P35372); assay: HTS Image-Based Screen for Agonists of the MOR Receptor. [Related pubchem assays (depositor defined):AID1777, AID1785, AID1786, AID2133]; assay type: functional;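 further: imaging of beta-arrestin GFP recruitment into spots after receptor activation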
[18] = target: T5, Delta-type opioid receptor; assay: HTS Image-Based Screen for Agonists of the DOR Receptor. [Related pubchem assays (depositor defined):AID1777, AID1786, AID2133]; assay type: functional
[19] = target: T6, Kappa-type opioid receptor (Homo sapiens, UniProt P41145); assay type: functional
Beta-galactosidase = Beta-galactosidase (Escherichia coli, UniProt Q8VNN2); assay type: functional
[20] = target: T6, Kappa-type opioid receptor; assay type: functional; remark: listed apart in the source

T5 sequence (P41143 whole entry): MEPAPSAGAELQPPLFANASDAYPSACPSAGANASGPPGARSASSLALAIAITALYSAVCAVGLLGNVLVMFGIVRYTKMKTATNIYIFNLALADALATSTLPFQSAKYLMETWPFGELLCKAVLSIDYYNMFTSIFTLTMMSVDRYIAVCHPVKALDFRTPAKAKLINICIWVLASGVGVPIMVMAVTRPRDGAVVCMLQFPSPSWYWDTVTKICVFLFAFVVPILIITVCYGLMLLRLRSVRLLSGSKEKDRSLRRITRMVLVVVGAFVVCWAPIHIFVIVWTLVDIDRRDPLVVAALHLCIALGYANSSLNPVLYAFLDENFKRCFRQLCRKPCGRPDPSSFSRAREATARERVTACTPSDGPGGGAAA
T6 sequence (P41145 whole entry): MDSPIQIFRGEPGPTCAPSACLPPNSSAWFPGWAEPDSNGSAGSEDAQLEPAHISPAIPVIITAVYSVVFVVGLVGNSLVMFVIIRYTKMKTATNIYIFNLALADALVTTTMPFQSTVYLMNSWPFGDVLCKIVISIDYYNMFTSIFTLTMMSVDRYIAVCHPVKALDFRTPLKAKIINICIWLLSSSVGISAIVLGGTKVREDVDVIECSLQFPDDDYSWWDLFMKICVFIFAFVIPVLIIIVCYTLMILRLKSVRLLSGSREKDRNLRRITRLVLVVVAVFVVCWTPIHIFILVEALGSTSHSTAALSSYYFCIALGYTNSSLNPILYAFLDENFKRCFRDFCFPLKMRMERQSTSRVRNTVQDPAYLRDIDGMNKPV
Chain of Voltage-dependent T-type calcium channel subunit alpha-1H (O95180 whole entry): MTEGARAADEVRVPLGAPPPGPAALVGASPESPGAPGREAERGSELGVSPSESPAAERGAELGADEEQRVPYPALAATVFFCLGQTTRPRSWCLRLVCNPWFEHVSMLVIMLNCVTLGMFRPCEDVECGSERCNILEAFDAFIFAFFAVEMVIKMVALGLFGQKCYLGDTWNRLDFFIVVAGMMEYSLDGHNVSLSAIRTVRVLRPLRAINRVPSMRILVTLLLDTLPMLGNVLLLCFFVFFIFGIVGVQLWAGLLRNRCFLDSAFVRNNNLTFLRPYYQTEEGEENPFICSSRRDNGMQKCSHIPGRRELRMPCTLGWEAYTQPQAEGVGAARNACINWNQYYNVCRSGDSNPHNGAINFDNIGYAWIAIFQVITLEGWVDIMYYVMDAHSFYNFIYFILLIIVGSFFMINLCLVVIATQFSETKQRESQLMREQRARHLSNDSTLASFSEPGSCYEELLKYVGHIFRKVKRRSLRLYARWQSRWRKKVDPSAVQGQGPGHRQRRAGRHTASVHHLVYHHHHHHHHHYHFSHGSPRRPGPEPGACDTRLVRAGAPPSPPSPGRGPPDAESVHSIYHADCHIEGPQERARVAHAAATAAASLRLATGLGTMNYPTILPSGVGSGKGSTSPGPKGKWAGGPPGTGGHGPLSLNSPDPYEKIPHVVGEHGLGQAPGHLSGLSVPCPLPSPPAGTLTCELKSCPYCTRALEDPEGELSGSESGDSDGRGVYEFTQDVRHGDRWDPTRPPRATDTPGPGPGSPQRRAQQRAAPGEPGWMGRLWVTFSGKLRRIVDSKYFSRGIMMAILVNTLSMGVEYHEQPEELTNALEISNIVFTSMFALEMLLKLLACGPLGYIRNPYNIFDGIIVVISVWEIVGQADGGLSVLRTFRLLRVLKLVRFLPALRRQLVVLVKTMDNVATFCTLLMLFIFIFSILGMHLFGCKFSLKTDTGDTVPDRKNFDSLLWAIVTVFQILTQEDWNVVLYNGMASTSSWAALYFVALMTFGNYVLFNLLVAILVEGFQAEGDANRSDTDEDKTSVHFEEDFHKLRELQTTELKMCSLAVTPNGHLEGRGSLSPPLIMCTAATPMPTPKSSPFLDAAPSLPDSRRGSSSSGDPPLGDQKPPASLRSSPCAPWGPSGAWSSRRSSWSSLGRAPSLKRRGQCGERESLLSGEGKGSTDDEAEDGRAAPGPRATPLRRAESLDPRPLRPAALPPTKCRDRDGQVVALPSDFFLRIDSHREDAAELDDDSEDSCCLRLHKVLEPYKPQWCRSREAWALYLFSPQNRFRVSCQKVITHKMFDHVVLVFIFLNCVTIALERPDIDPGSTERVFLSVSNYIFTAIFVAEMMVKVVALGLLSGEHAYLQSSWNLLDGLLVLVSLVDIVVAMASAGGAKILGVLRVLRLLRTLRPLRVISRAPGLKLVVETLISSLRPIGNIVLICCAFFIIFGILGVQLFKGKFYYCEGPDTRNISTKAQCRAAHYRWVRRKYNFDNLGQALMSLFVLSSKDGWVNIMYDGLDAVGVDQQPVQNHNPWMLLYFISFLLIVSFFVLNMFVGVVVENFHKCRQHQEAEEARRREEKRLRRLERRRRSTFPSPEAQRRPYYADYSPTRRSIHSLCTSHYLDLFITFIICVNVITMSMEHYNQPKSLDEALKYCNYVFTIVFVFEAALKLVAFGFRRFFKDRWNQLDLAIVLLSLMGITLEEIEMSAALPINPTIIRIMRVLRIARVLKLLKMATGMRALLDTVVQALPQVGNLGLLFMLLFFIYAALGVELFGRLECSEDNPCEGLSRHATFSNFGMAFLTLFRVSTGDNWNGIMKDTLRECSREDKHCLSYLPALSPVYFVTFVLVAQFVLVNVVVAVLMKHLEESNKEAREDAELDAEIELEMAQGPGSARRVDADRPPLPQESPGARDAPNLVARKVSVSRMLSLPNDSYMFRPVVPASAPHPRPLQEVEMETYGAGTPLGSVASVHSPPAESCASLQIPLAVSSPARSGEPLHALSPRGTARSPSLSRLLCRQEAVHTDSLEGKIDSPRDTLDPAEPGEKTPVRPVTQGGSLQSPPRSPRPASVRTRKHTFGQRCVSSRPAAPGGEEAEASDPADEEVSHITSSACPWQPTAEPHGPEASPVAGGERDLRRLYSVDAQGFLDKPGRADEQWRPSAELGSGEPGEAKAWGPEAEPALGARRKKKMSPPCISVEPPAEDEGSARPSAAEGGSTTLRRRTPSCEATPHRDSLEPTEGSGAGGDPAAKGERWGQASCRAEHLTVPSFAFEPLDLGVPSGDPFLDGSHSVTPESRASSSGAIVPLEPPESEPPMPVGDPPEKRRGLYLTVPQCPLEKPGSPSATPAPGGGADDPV
Chain of Eukaryotic translation initiation factor 4E (P63073 whole entry): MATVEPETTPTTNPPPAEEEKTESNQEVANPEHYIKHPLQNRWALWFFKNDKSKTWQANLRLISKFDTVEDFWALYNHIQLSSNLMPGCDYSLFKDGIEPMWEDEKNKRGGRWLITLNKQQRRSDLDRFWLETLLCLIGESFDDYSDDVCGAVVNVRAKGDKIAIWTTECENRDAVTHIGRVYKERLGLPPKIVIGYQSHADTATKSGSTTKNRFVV
Chain of Cytochrome P450 2C19 (P33261 whole entry): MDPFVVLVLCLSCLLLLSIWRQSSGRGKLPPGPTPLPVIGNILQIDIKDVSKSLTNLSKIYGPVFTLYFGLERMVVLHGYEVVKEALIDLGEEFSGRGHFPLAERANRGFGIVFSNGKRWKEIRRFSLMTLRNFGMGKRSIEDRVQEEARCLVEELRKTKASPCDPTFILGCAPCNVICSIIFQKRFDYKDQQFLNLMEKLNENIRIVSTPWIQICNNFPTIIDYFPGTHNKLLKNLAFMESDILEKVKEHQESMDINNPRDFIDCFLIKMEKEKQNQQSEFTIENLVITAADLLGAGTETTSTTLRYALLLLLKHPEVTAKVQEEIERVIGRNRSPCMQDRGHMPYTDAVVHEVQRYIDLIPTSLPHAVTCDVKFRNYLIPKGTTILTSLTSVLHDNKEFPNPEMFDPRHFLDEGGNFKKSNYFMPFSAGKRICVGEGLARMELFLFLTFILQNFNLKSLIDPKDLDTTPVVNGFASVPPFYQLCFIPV
Chain of Mu-type opioid receptor (P35372 whole entry): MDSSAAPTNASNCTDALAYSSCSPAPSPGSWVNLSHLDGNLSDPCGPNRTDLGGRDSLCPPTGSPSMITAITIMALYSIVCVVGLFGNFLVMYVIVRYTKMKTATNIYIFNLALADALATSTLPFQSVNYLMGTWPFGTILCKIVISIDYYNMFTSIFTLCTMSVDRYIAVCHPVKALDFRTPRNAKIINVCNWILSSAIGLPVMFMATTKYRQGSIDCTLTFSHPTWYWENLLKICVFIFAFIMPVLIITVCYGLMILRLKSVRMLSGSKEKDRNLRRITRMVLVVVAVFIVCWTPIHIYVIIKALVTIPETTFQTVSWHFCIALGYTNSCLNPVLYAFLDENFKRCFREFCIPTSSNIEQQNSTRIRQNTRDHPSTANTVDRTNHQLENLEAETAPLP
Chain of ATP-dependent molecular chaperone HSP82 (C4YTQ8 whole entry): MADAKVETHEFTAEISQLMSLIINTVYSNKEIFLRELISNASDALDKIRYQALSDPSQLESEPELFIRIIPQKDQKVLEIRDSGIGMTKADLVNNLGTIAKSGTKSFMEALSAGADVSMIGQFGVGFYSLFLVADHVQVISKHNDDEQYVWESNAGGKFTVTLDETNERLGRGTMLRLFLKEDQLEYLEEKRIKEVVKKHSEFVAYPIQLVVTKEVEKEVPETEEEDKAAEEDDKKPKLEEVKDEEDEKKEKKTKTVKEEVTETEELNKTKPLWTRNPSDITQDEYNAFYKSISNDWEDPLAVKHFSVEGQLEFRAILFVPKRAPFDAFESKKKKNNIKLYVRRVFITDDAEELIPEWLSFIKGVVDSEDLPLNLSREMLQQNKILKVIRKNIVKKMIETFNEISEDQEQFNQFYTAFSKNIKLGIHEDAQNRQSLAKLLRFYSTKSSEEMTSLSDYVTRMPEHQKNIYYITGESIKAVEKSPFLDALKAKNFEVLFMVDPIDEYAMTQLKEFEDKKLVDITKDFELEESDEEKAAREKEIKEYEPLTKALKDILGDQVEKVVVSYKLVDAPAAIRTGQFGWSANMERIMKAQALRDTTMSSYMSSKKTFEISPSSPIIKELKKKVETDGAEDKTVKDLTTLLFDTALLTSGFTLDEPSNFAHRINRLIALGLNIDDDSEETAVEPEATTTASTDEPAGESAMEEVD

O=C(O[C@H]1C[N@+]2(Br)CC[C@@H]1CC2)C(O)(c1ccccc1)c1ccccc1
AC50 (Cytochrome P450 2C19): inactive
AC50 (Cytochrome P450 2D6): inactive
AC50 (Cytochrome P450 1A2): inactive
AC50 (Cytochrome P450 3A4): inactive
AC50 (Cytochrome P450 2C9): inactive

O=C(Nc1nc2ccccc2n1Cc1ccccc1Cl)c1cccs1
IC50 (Tumor necrosis factor): > 20 µM (inactive)
IC50 [1]: > 20 µM (inactive)
IC50 [2]: > 20 µM (inactive)
IC50 (HEK293): > 20 µM (inactive)

O=c1c2cc(Br)ccc2nc(-c2cccc(C(F)(F)F)c2)n1O
EC50 [3]: 15.5 µM (inconclusive)
EC50 [4]: 0.451 µM (active)
EC50 [5]: 28.1 µM (active)
CC50 [6]: 13.9 µM (active)
CC50 [7]: 15.8 µM (active)
CC50 [8]: 11.6 µM (active)
EC50 [9]: 5.96 µM (active)
IC50 (cells): 8.38 µM (active)
EC50 [10]: 17.3 µM (active)
EC50 [11]: 4.04 µM (active)

CCOc1ccccc1OCCCCCc1c(C)n[nH]c1C
EC50 [12]: > 49.8 µM (inactive)
EC50 [13]: > 49.8 µM (not active)
EC50 [14]: 8.55 µM (active)
IC50 [15]: > 64 µM (inactive)

Cn1cc(/C=C2\C(=O)NC(=O)N(c3ccccc3)C2=O)c2ccccc21
AC50 (Salmon testes DNA): 92.2 µM (active)
AC50 (ORF 73): 41.3 µM (active)
AC50 [16]: 71.9 µM (active)

CCc1nc2sc3c(Cl)ncnc3c2c2c1CCCC2
IC50 [17]: > 32 µM (inactive)
EC50 (Mu-type opioid receptor): > 32 µM (inactive)
EC50 [18]: > 32 µM (inactive)
IC50 [19]: 5.42 µM (active)
EC50 (Beta-galactosidase): > 31.5 µM (inactive)
IC50 [20]: > 32 µM
